US11149018B2, “Substituted N-arylethyl-2-aminoquinoline-4-carboxamides and use thereof” (Bayer Aktiengesellschaft, priority 2017, dated 2021)

Tests used:
[1] = system: C57BL/6J mice with CCl4-induced hepatic fibrosis; test: Carbon tetrachloride (CCl4)-induced hepatic fibrosis in mice; type: in vivo, mouse
Description: B-21. Carbon Tetrachloride (CCl4)-Induced Hepatic Fibrosis in Mice
Sixty C57BL/6J mice (Charles River, male, 8 weeks old) were randomized and divided equally into 4 groups (15 mice per group). Group 1 served as the untreated healthy control group, whereas groups 2-4 served as mice suffering from hepatic fibrosis. Hepatic fibrosis was induced by intraperitoneal injection of 50 μl CCl4/olive oil suspension (CCl4+olive oil, 1+9 v/v) three times per week (Monday, Wednesday and Friday) over the entire study period. […] The CCl4-treated mice of group 4 served as group treated with a compound of the formula (I). The oral treatment of group 3 with the vehicle solution and of group 4 with a compound of the formula (I) started on day 1 and was continued twice daily (in the morning and evening) over the complete study period of two weeks. At the end of the study, all animals were sacrificed under anaesthetic, and the livers were removed fixed in 4% buffered formaldehyde solution for the subsequent histological processing and analysis. For this purpose, liver samples for all animals were embedded in paraffin and 3 μm-thick paraffin sections were produced. […] The sections were scanned with 20× enlargement and a light intensity of 4.8 V. The images thus produced were then converted to JPG format, and the red-stained area was quantified by means of ImageJ software (National Institute of Health, USA). […]

[2] = system: C57Bl6J mice with DQ12 silica-induced pulmonary fibrosis; test: Silica-induced pulmonary fibrosis in mice, therapeutic chronic 30-day study; type: in vivo, mouse; details: day 10-30, mean ± SEM
Description: B-23. Silica-Induced Pulmonary Fibrosis in Mice: Therapeutic Chronic 30-Day Study with FP Antagonists
Adult female C57Bl6J mice (Charles River Laboratories, Sulzfeld, Germany) having a weight of 18-20 g were anaesthetized in a chamber with isoflurane (3% v/v) and treated intratracheally with 2.5 mg of crystalline DQ12 silica dissolved in 70 μL of sterile phosphate-buffered saline. Untreated control mice received the same volume of phosphate-buffered saline. […] 30 days after the installation of silica, the animals were anaesthetized with an intraperitoneal injection of ketamine/medetomidine (50 mg/kg and 0.33 mg/kg) combined with a subcutaneous injection of Temgesic (0.06 mg/kg) and sacrifice by exsanguination. Thereafter, the trachea was cannulated, and the animals' lungs were lavaged three times with 0.5 ml of ice-cold phosphate-buffered saline. Thereafter, the lungs were removed, weighed and shock-frozen in dry ice. […] The data are mean values±SEM of 8-12 animals per group. The statistical analysis was conducted with the unpaired Student's t test. P values<0.05 were considered to be significant.

[3] = system: C57Bl6J mice with unilateral ureteral obstruction; test: Unilateral ureteral obstruction (UUO) in mice (renal fibrosis); type: in vivo, mouse; details: 10 days after UUO, mean ± SD, n=10; for SR/FG positive area [%]: SiriusRed/FastGreen collagen staining of kidney; for αSMA positive area [%]: immunohistochemistry of kidney; for Gene expression CTGF / Gene expression Col1α1 / Gene expression Col3α1 / Gene expression Col4α1 / Gene expression IL1-β / Gene expression IL-6 / Gene expression KC / Gene expression MCP-1 / Gene expression TGF-β / Gene expression αSMA: kidney, % of placebo group (=100%)
Description: B-22. Animal Model of Unilateral Ureteral Obstruction (UUO) in Mice (Renal Fibrosis) Unilateral ureteral obstruction in mice and rats is a widely used animal model for interstitial renal fibrosis (Chevalier et al., Kidney Int. 2009, 75, 1145-1152). Permanent occlusion of the ureter leads, as a result of the sustained accumulation of the urine, to increased inflammatory cell infiltration into the interstitium, to tubular cell death and to irreversible loss of the renal parenchyma. After 5 to 7 days, owing to the elevated deposition of extracellular matrix proteins, interstitial fibrosis arises. Adult male […] mice (Charles River Laboratories, Sulzfeld, Germany) having a weight of 20-22 g were anaesthetized with isoflurane, then, after opening up the abdominal cavity, a ureter was ligated and severed beneath the ligature. In the sham-operated control mice (SHAM), the abdominal cavity was merely opened up, but the ureter was not ligated. […] 10 days after the UUO, the animals were anaesthetized and sacrificed by exsanguination. Thereafter, the kidneys were removed and renal fibrosis was assessed on the basis of the expression of pro-inflammatory and pro-fibrotic markers, and a histological assessment of the renal tissue.

[4] = system: occlusion of the cerebral artery; details: treatment with the FP antagonist after occlusion of the cerebral artery; cited from earlier work
FP receptor = FP receptor (Homo sapiens (Human), UniProt P43088); details: least selective of the prostanoid receptors; cited from earlier work
Sequence of FP receptor (P43088 whole entry): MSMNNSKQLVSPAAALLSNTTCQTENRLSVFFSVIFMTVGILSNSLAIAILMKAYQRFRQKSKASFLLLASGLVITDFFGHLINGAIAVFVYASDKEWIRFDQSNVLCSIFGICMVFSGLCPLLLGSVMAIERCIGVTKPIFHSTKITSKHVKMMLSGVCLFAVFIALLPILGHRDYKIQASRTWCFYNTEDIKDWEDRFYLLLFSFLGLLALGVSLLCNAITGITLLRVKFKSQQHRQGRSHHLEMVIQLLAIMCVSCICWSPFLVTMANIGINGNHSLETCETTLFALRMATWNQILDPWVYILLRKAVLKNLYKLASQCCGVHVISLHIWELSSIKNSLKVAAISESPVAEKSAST

Cc1c(N2CCCC2)nc2ccc(Br)cc2c1C(=O)NCC(CCC(=O)O)c1ccccc1Cl.Cl (single isomer, unassigned; (+)) [Example 284, (+)-5-({[6-Bromo-3-methyl-2-(pyrrolidin-1-yl)quinolin-4-yl]carbonyl}amino)-4-(2-chlorophenyl)pentanoic acid hydrochloride]
Progression of fibrosis (result in words) ([1]; 2-week study in mice with hepatic fibrosis, p<0.01, two-way ANOVA with Dunnett post-hoc test): significant reduction in the progression of fibrosis | Sirius red [% liver area] ([1]; CCl4 + 100 mg/kg, oral twice daily, 2 weeks, mean ± SD): 3.51 ± 0.65 % liver area | Hydroxyproline [ng/lung] ([2]; Silica + 10 mg/kg po bid): 2341 ± 54.99 (n = 12) ng/lung | Hydroxyproline [ng/lung] ([2]; Silica + 30 mg/kg po bid): 2185 ± 86.79 (n = 12) ng/lung | SR/FG positive area [%] ([3]; 30 mg/kg): 38.74 ± 9.12% | αSMA positive area [%] ([3]; 30 mg/kg): 25.19 ± 3.23% | Gene expression CTGF ([3]; 30 mg/kg): 105.67 ± 52.33% | Gene expression Col1α1 ([3]; 30 mg/kg): 76.70 ± 36.22% | Gene expression Col3α1 ([3]; 30 mg/kg): 103.74 ± 37.60% | Gene expression Col4α1 ([3]; 30 mg/kg): 71.15 ± 20.20% | Gene expression IL1-β ([3]; 30 mg/kg): 81.91 ± 31.93% | Gene expression IL-6 ([3]; 30 mg/kg): 207.04 ± 389.13% | Gene expression KC ([3]; 30 mg/kg): 65.02 ± 15.98% | Gene expression MCP-1 ([3]; 30 mg/kg): 93.98 ± 26.32% | Gene expression TGF-β ([3]; 30 mg/kg): 67.57 ± 32.67% | Gene expression αSMA ([3]; 30 mg/kg): 72.97 ± 39.94% | SR/FG positive area [%] ([3]; 60 mg/kg): 34.66 ± 7.59% | αSMA positive area [%] ([3]; 60 mg/kg): 22.28 ± 4.04% | Gene expression CTGF ([3]; 60 mg/kg): 102.07 ± 26.99% | Gene expression Col1α1 ([3]; 60 mg/kg): 38.90 ± 13.11% | Gene expression Col3α1 ([3]; 60 mg/kg): 126.15 ± 46.51% | Gene expression Col4α1 ([3]; 60 mg/kg): 45.97 ± 8.44% | Gene expression IL1-β ([3]; 60 mg/kg): 112.05 ± 71.38% | Gene expression IL-6 ([3]; 60 mg/kg): 494.83 ± 850.76% | Gene expression KC ([3]; 60 mg/kg): 50.69 ± 22.02% | Gene expression MCP-1 ([3]; 60 mg/kg): 117.41 ± 38.15% | Gene expression TGF-β ([3]; 60 mg/kg): 31.79 ± 9.06% | Gene expression αSMA ([3]; 60 mg/kg): 51.72 ± 21.33%

O=C(O)CCC/C=C\C[C@@H]1[C@@H](/C=C/[C@H](O)C2Cc3ccccc3C2)[C@@H](F)C[C@@H]1O [AL-8810]
neuroprotective effect [4]: significant neuroprotective effects

CCCCC[C@H](O)/C=C/[C@H]1C(=O)C[C@H](O)[C@@H]1C/C=C\CCCC(=O)O [PGD2, prostaglandin D2]
binding affinity to the FP receptor (FP receptor): nanomolar affinities

CCCCC[C@H](O)/C=C/[C@H]1[C@H](O)CC(=O)[C@@H]1C/C=C\CCCC(=O)O [PGE2, prostaglandin E2]
binding affinity to the FP receptor (FP receptor): nanomolar affinities
